# Test results from PubChem BioAssay AID330 (DTP/NCI, 2004).
# “And” between values parts separate entries of the source, which are not always exact repeats. Identical values can stand only once. Toxic doses and inconclusive results are not listed.
# Tested on: P388 leukemia ip, CD2F1 mice, survival T/C
# Test: NCI In Vivo Anticancer Drug Screen. Data for tumor model P388 Leukemia (intraperitoneal) in CD2F1 (CDF1) mice
# Conditions: endpoint: median survival time, higher = longer survival
# Method in brief: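 Mice carrying the transplanted tumor received test compound or vehicle. Survival was recorded in each group, and the value is the treated-group measurement divided by that of the vehicle-treated control group.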
# [1] = dose: 60.0 mg/kg/injection, schedule: Q01DX005 (ip), vehicle: saline with Tween-80
# [2] = dose: 120.0 mg/kg/injection, schedule: Q01DX005 (ip), vehicle: saline with Tween-80
# [3] = dose: 240.0 mg/kg/injection, schedule: Q01DX005 (ip), vehicle: saline with Tween-80
# [4] = dose: 50.0 mg/kg/injection, schedule: Q01DX009 (ip), vehicle: saline with Tween-80
# [5] = dose: 100.0 mg/kg/injection, schedule: Q01DX009 (ip), vehicle: saline with Tween-80
# [6] = dose: 200.0 mg/kg/injection, schedule: Q01DX009 (ip), vehicle: saline with Tween-80
# [7] = dose: 50.0 mg/kg/injection, schedule: Q01DX009 (ip), vehicle: saline
# [8] = dose: 100.0 mg/kg/injection, schedule: Q01DX001 (ip), vehicle: saline with Tween-80
# [9] = dose: 200.0 mg/kg/injection, schedule: Q01DX001 (ip), vehicle: saline with Tween-80
# [10] = dose: 400.0 mg/kg/injection, schedule: Q01DX001 (ip), vehicle: saline with Tween-80
compound,measurement,setting,value
COc1cccc2c1C(=O)c1c(O)c3c(c(O)c1C2=O)C[C@@](O)(C(C)=O)C[C@@H]3OC1CC(N(C)C)C(O)C(C)O1 (some centres not stated),T/C,"dose: 0.25 mg/kg/injection, schedule: Q01DX009 (ip), vehicle: water",115 % of control
same,T/C,"dose: 0.5 mg/kg/injection, schedule: Q01DX009 (ip), vehicle: water",158 % of control
same,T/C,"dose: 0.63 mg/kg/injection, schedule: Q04DX003 (ip), vehicle: water",115 % of control
same,T/C,"dose: 1.0 mg/kg/injection, schedule: Q01DX009 (ip), vehicle: water",171 % of control and 190 % of control
same,T/C,"dose: 1.25 mg/kg/injection, schedule: Q01DX001 (ip), vehicle: water",116 % of control
same,T/C,"dose: 1.25 mg/kg/injection, schedule: Q04DX003 (ip), vehicle: water",100 % of control
same,T/C,"dose: 2.0 mg/kg/injection, schedule: Q01DX009 (ip), vehicle: water",200 % of control and 228 % of control
same,T/C,"dose: 2.16 mg/kg/injection, schedule: Q04DX003 (ip), vehicle: water",151 % of control
same,T/C,"dose: 2.5 mg/kg/injection, schedule: Q04DX003 (ip), vehicle: water",109 % of control
same,T/C,"dose: 4.0 mg/kg/injection, schedule: Q01DX009 (ip), vehicle: water",98 % of control and 88 % of control
same,T/C,"dose: 5.0 mg/kg/injection, schedule: Q04DX003 (ip), vehicle: water",104 % of control and 121 % of control
same,T/C,"dose: 6.0 mg/kg/injection, schedule: Q04DX003 (ip), vehicle: water",170 % of control
same,T/C,"dose: 10.0 mg/kg/injection, schedule: Q01DX001 (ip), vehicle: water",154 % of control
same,T/C,"dose: 10.0 mg/kg/injection, schedule: Q04DX003 (ip), vehicle: water",199 % of control
same,T/C,"dose: 16.7 mg/kg/injection, schedule: Q04DX003 (ip), vehicle: water",93 % of control
same,T/C,"dose: 20.0 mg/kg/injection, schedule: Q01DX001 (ip), vehicle: water",169 % of control
same,T/C,"dose: 20.0 mg/kg/injection, schedule: Q04DX003 (ip), vehicle: water",123 % of control
same,T/C,"dose: 40.0 mg/kg/injection, schedule: Q04DX003 (ip), vehicle: water",114 % of control
C=C1C(=O)C23CCC4C5(C)CCCC4(C4OCCN4C5)C2CCC1C3 (configuration not stated),T/C,"dose: 1.0 mg/kg/injection, schedule: Q01DX009 (ip), vehicle: Klucel (hydroxypropylcellulose) (HPC)",104 % of control
same,T/C,"dose: 2.0 mg/kg/injection, schedule: Q01DX009 (ip), vehicle: Klucel (hydroxypropylcellulose) (HPC)",107 % of control
same,T/C,"dose: 4.0 mg/kg/injection, schedule: Q01DX009 (ip), vehicle: Klucel (hydroxypropylcellulose) (HPC)",95 % of control
same,T/C,"dose: 8.0 mg/kg/injection, schedule: Q01DX009 (ip), vehicle: Klucel (hydroxypropylcellulose) (HPC)",95 % of control
CCc1cccc(C)c1NC(=O)C(=O)CC(=O)CS(=O)(=O)c1ccc(C)cc1,T/C,[1],109 % of control
same,T/C,[2],111 % of control
same,T/C,[3],104 % of control
CN(C)c1ccc(/C=C/c2ccnc3ccc4ccccc4c23)cc1,T/C,[4],98 % of control
same,T/C,[5],100 % of control
same,T/C,[6],110 % of control
Cc1ccc(S(=O)(=O)Oc2ccc3c(/C=C/[N+](=O)[O-])cn(C)c3c2)cc1,T/C,"dose: 50.0 mg/kg/injection, schedule: Q01DX001 (ip), vehicle: Klucel (hydroxypropylcellulose) (HPC)",90 % of control
same,T/C,"dose: 100.0 mg/kg/injection, schedule: Q01DX001 (ip), vehicle: Klucel (hydroxypropylcellulose) (HPC)",86 % of control
same,T/C,"dose: 200.0 mg/kg/injection, schedule: Q01DX001 (ip), vehicle: Klucel (hydroxypropylcellulose) (HPC)",101 % of control
CCC(O)C1(OC)C=CC(OC)O1 (configuration not stated),T/C,"dose: 3.12 mg/kg/injection, schedule: Q01DX005 (ip), vehicle: saline",100 % of control
same,T/C,"dose: 6.25 mg/kg/injection, schedule: Q01DX005 (ip), vehicle: saline",97 % of control
same,T/C,"dose: 12.5 mg/kg/injection, schedule: Q01DX005 (ip), vehicle: saline",101 % of control
NSC(=S)NCc1ccco1,T/C,"dose: 50.0 mg/kg/injection, schedule: Q01DX005 (ip), vehicle: Klucel (hydroxypropylcellulose) (HPC)",106 % of control and 107 % of control
same,T/C,"dose: 100.0 mg/kg/injection, schedule: Q01DX005 (ip), vehicle: Klucel (hydroxypropylcellulose) (HPC)",101 % of control and 115 % of control
same,T/C,"dose: 200.0 mg/kg/injection, schedule: Q01DX005 (ip), vehicle: Klucel (hydroxypropylcellulose) (HPC)",115 % of control and 119 % of control
O=c1c2ccc(Cl)cc2nc2nc(-c3ccccc3)c3cc(Cl)ccc3n12,T/C,[1],107 % of control
same,T/C,[2],106 % of control
same,T/C,[3],97 % of control
CCOP(=O)(OCC)Oc1c(OC)cc(C2OCCO2)cc1OC,T/C,[7],103 % of control
same,T/C,"dose: 100.0 mg/kg/injection, schedule: Q01DX009 (ip), vehicle: saline",103 % of control
same,T/C,"dose: 200.0 mg/kg/injection, schedule: Q01DX009 (ip), vehicle: saline",117 % of control
Cn1ccn2cnnc2c1=O,T/C,[8],100 % of control
same,T/C,[9],106 % of control
same,T/C,[10],99 % of control
Cc1onc(-c2c(F)cccc2Cl)c1-c1ncc(-c2ccc(Cl)cc2)o1,T/C,[1],98 % of control
same,T/C,[2],94 % of control
same,T/C,[3],99 % of control
Cc1cc(O)c(C(c2ccncc2)c2c(O)cc(C)[nH]c2=O)c(=O)[nH]1,T/C,[4],102 % of control
same,T/C,[5],95 % of control
same,T/C,[6],94 % of control
Cc1cc(C)n(C2=NC3(c4ccc(Cl)cc4)NC(=O)NC3(c3ccc(Cl)cc3)N2)n1 (configuration not stated),T/C,"dose: 50.0 mg/kg/injection, schedule: Q04DX002 (ip), vehicle: saline with Tween-80",96 % of control
same,T/C,"dose: 100.0 mg/kg/injection, schedule: Q04DX002 (ip), vehicle: saline with Tween-80",97 % of control
same,T/C,"dose: 200.0 mg/kg/injection, schedule: Q04DX002 (ip), vehicle: saline with Tween-80",93 % of control
NC(=S)N/N=C/c1cc(-c2cccc(N)c2)ccn1,T/C,"dose: 6.25 mg/kg/injection, schedule: Q01DX009 (ip), vehicle: saline",121 % of control
same,T/C,"dose: 9.4 mg/kg/injection, schedule: Q04DX003 (ip), vehicle: saline",109 % of control
same,T/C,"dose: 18.8 mg/kg/injection, schedule: Q04DX003 (ip), vehicle: saline",122 % of control
same,T/C,"dose: 25.0 mg/kg/injection, schedule: Q01DX009 (ip), vehicle: saline with Tween-80",119 % of control
same,T/C,"dose: 25.0 mg/kg/injection, schedule: Q01DX009 (ip), vehicle: saline",150 % of control
same,T/C,[4],122 % of control
same,T/C,[7],154 % of control
same,T/C,"dose: 75.0 mg/kg/injection, schedule: Q01DX009 (ip), vehicle: saline with Tween-80",111 % of control and 122 % of control
same,T/C,"dose: 75.0 mg/kg/injection, schedule: Q01DX009 (ip), vehicle: saline",158 % of control
same,T/C,"dose: 150.0 mg/kg/injection, schedule: Q04DX003 (ip), vehicle: saline",123 % of control
C=C1C(=O)C23CC[C@H]4C(C)(CCC[C@]4(C)C(=O)O)[C@@H]2CCC1C3 (some centres not stated),T/C,"dose: 3.75 mg/kg/injection, schedule: Q01DX005 (ip), vehicle: Klucel (hydroxypropylcellulose) (HPC)",86 % of control
same,T/C,"dose: 7.5 mg/kg/injection, schedule: Q01DX005 (ip), vehicle: Klucel (hydroxypropylcellulose) (HPC)",91 % of control
same,T/C,"dose: 15.0 mg/kg/injection, schedule: Q01DX005 (ip), vehicle: Klucel (hydroxypropylcellulose) (HPC)",87 % of control
same,T/C,"dose: 30.0 mg/kg/injection, schedule: Q01DX005 (ip), vehicle: Klucel (hydroxypropylcellulose) (HPC)",98 % of control
OC1CC2CCCCC2CC1(O)c1ccc(OCc2ccccc2)c(OCc2ccccc2)c1 (configuration not stated),T/C,"dose: 25.0 mg/kg/injection, schedule: Q01DX001 (ip), vehicle: saline with Tween-80",92 % of control
same,T/C,"dose: 50.0 mg/kg/injection, schedule: Q01DX001 (ip), vehicle: saline with Tween-80",88 % of control
same,T/C,[8],86 % of control
CC(C)(NC(=O)c1cc(Cl)c2ccccc2c1O)C(=O)O,T/C,"dose: 50.0 mg/kg/injection, schedule: Q01DX009 (ip), vehicle: saline + alcohol",97 % of control
same,T/C,"dose: 100.0 mg/kg/injection, schedule: Q01DX009 (ip), vehicle: saline + alcohol",94 % of control
same,T/C,"dose: 200.0 mg/kg/injection, schedule: Q01DX009 (ip), vehicle: saline + alcohol",103 % of control
COC(=O)c1cc(-c2ccc(N)cc2)n2c(N)nnc2n1,T/C,[1],107 % of control
same,T/C,[2],91 % of control
same,T/C,[3],98 % of control
CN1c2ccccc2SC2C(c3ccccc3)=NOC21 (configuration not stated),T/C,"dose: 3.75 mg/kg/injection, schedule: Q01DX005 (ip), vehicle: saline with Tween-80",98 % of control
same,T/C,"dose: 7.5 mg/kg/injection, schedule: Q01DX005 (ip), vehicle: saline with Tween-80",93 % of control
same,T/C,"dose: 15.0 mg/kg/injection, schedule: Q01DX005 (ip), vehicle: saline with Tween-80",90 % of control
same,T/C,"dose: 30.0 mg/kg/injection, schedule: Q01DX005 (ip), vehicle: saline with Tween-80",88 % of control
same,T/C,[1],86 % of control
same,T/C,[3],89 % of control
O=C(/C(=C(/[O-])C(F)(F)F)[n+]1ccc2ccccc2c1)C(F)(F)F,T/C,[8],100 % of control
same,T/C,[9],100 % of control and 112 % of control
same,T/C,[10],104 % of control and 97 % of control
